The source of these data is publication PMC4466645 (Oncotarget, 2015).

Data set [1] deals with AML cell lines. Put plainly: Cell cycle analysis (propidium iodide, ModFit) in AML cell lines. The conditions noted are these: significant at the 300 nM dose, 72 hours.
Procedure: (§2) To assess apoptosis, AML cell lines were cultured at 3 × 10^5 cells, and 1 × 10^6 AML patient blasts were co-cultured with 3.5 × 10^5 HS27 cells per condition in 24 well plates, and treated for 72 hours. […] Flow cytometry data were analyzed using Modfit Cell Cycle Analysis software (Verity Software House). In replating assays, cells were similarly plated and treated, then harvested cells were washed twice, and 1.5 × 10^4 viable cells/ml were cultured in cRPMI for six days. Six days after replating, viable myeloblast count was determined by trypan blue exclusion using a Cedex XS Analyzer (Roche).
In data set [2] the test system is AML cell lines expressing Mer or Flt3 internal tandem duplication (ITD). Kind of data set: Colony formation, AML cell lines expressing Mer or Flt3-ITD (all lines together). It is filed as cell-based. The conditions noted are these: compared to treatment with vehicle. On the procedure: Cell lines were plated at a density of 1000 cells/ml in 0.35% agar over 0.5% agar base layer. […] Colonies were grown for 14 (NOMO-1, MV4;11, MOLM-13) or 21 days (Kasumi-1) prior to staining with 1 mg/ml nitrotetrazolium blue (Sigma-Aldrich). Treatment-containing medium was renewed twice weekly. […]. Human mononuclear cells were isolated from umbilical cord blood samples using Ficoll-Paque PLUS (GE Healthcare Life Sciences). […]. Cell line and patient sample colonies were counted using a GelCount colony counter (Oxford Optronix) and cord blood colonies were manually counted in a blinded, non-biased manner.

The test system of data set [3] is MOLM-13 cell line. Put plainly: Apoptosis by flow cytometry (YO-PRO-1 iodide / propidium iodide), MOLM-13. The conditions noted are these: MOLM-13, 300 nM, 72 hours; vehicle 8 ± 1%.
Procedure: as §2
Data set [4] relates to NOMO-1. Kind of data set: Soft agar colony formation assay, NOMO-1. The format is cell-based. The conditions noted are these: NOMO-1, 100 nM, 14 days, normalized to vehicle. As to the method:
(§1) Cell lines were plated at a density of 1000 cells/ml in 0.35% agar over 0.5% agar base layer. […] Colonies were grown for 14 (NOMO-1, MV4;11, MOLM-13) or 21 days (Kasumi-1) prior to staining with 1 mg/ml nitrotetrazolium blue (Sigma-Aldrich). Treatment-containing medium was renewed twice weekly. […] Human mononuclear cells were isolated from umbilical cord blood samples using Ficoll-Paque PLUS (GE Healthcare Life Sciences). […] Cell line and patient sample colonies were counted using a GelCount colony counter (Oxford Optronix) and cord blood colonies were manually counted in a blinded, non-biased manner.

Data set [5] relates to MV4;11 cell line. Kind of data set: Apoptosis by flow cytometry (YO-PRO-1 iodide / propidium iodide), MV4;11. The conditions noted are these: MV4;11, 300 nM, 72 hours; vehicle 13 ± 3%.
Procedure: as §2
Data set [6] has as its system primary AML patient samples. Put plainly: Apoptosis by flow cytometry in primary AML patient samples co-cultured with HS27 stromal cells. It is filed as cell-based, human. An excerpt: Cell lines MV4;11, NOMO-1, KG-1a, NB-4, and HEL were obtained from the German Collection of Microorganisms and Cell Culture (DSMZ); Kasumi-1 and U937 were obtained from the American Type Culture Collection (ATCC); MOLM-13 was a gift from Robert Arceci (Johns Hopkins); HS-27 was a gift from Kathrin Bernt (University of Colorado). AML cell lines were maintained in RPMI medium (HyClone) supplemented with 10% FBS and penicillin/streptomycin (cRPMI). Cell line identities were confirmed using short tandem repeat microsatellite loci analysis. HS-27 stromal cells were maintained in DMEM with 10% FBS and penicillin/streptomycin prior to co-culture. De-identified cord blood samples and primary patient myeloblasts apheresed from peripheral blood were obtained from the University of Colorado after written informed consent in accordance with the Declaration of Helsinki. Experiments conformed to regulatory standards as approved by the Colorado Multiple Institutional Review Board. AML patient samples were maintained as previously described, with HS-27 stromal co-culture for apoptosis and cell cycle experiments.
To assess apoptosis, AML cell lines were cultured at 3 × 10^5 cells, and 1 × 10^6 AML patient blasts were co-cultured with 3.5 × 10^5 HS27 cells per condition in 24 well plates, and treated for 72 hours. Harvested cells were washed, resuspended in PBS containing 1 μM YO-PRO®-1 iodide (Invitrogen) and 1.5 μM propidium iodide (PI) (Invitrogen), and incubated on ice for 15–20 minutes. […] Flow cytometry data were analyzed using Modfit Cell Cycle Analysis software (Verity Software House). In replating assays, cells were similarly plated and treated, then harvested cells were washed twice, and 1.5 × 10^4 viable cells/ml were cultured in cRPMI for six days. Six days after replating, viable myeloblast count was determined by trypan blue exclusion using a Cedex XS Analyzer (Roche).

In data set [7] the test system is Flt3-ITD cell lines. Kind of data set: Apoptosis by flow cytometry, Flt3-ITD cell lines. The conditions noted are these: 72 hours, range over Flt3-ITD cell lines. It is filed as cell-based. On the procedure: To assess apoptosis, AML cell lines were cultured at 3 × 10^5 cells, and 1 × 10^6 AML patient blasts were co-cultured with 3.5 × 10^5 HS27 cells per condition in 24 well plates, and treated for 72 hours. Harvested cells were washed, resuspended in PBS containing 1 μM YO-PRO®-1 iodide (Invitrogen) and 1.5 μM propidium iodide (PI) (Invitrogen), and incubated on ice for 15–20 minutes. […] . Flow cytometry data were analyzed using Modfit Cell Cycle Analysis software (Verity Software House). In replating assays, cells were similarly plated and treated, then harvested cells were washed twice, and 1.5 × 10^4 viable cells/ml were cultured in cRPMI for six days. Six days after replating, viable myeloblast count was determined by trypan blue exclusion using a Cedex XS Analyzer (Roche).

Data set [8] relates to Mer-expressing cell lines. Put plainly: Apoptosis by flow cytometry, Mer-expressing cell lines. The settings on record: 72 hours, range over Mer-expressing cell lines.
Procedure: as §2
Data set [9] concerns the target TRKC (Homo sapiens, UniProt Q16288). Kind of data set: Protein kinase profiling panel (Carna Biosciences), TRKC. The conditions noted are these: read-out: Percent Inhibition at 46 nM, TRKC.
For data set [10], the target named is T1, TrkA (Homo sapiens, UniProt P04629). Kind of data set: Protein kinase profiling panel (Carna Biosciences), TRKA. The conditions noted are these: read-out: Percent Inhibition at 46 nM, TRKA.
T1 sequence (P04629 33-796): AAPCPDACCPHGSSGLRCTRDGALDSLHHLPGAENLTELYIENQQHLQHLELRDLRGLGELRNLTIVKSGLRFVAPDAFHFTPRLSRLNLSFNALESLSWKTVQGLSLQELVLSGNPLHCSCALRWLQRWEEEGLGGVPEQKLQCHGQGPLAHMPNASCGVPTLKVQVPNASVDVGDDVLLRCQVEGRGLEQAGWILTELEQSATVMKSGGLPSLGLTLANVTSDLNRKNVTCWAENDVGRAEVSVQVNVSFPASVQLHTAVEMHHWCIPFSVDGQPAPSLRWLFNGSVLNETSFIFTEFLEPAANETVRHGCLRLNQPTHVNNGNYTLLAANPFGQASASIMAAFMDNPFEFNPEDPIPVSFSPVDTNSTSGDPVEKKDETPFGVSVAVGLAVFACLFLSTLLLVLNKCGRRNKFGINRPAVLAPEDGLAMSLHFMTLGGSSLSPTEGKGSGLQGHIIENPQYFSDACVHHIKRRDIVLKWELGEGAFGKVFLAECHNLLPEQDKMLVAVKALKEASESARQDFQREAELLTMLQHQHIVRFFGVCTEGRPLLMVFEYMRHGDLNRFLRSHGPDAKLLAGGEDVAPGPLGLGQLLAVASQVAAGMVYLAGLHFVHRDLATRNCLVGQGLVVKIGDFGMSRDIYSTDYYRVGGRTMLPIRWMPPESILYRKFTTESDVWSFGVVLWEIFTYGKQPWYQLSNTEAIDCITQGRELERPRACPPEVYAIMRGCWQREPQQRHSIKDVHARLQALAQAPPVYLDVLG
Data set [11] relates to normal umbilical cord blood. Put plainly: Colony formation in methylcellulose, normal umbilical cord blood hematopoietic precursors. It is filed as cell-based, human. On the procedure:
as §1

In data set [12] the target is T1, TrkA. Put plainly: Microfluidic capillary electrophoresis (MCE) enzymatic assay, TrkA.
Procedure: Microfluidic capillary electrophoresis (MCE) enzyme (40 μL, 4 nM Mer) and allowed to incubate for
assay 10 min followed by addition of 32 μL of substrate mix
polypropylene microplate with a final volume of 50μL in reads total, on an EZReader, using upstream voltage =
50mM Hepes, pH 7.4 containing 10mM MgCl2, 1.0 mM −2250V, downstream voltage = −500V and pressure =
DTT, 0.01% Triton X-100, 0.1% bovine serum albumin −1.0 psi (sip time 0.2 sec, buffer 30 sec). The steady-state
(BSA) (MCE Buffer), with 1.0 μM fluorescent substrate velocity was analyzed by linear regression of the peptide
and ATP at Km for each enzyme (Supplemental Table 1). as percent-conversion/min, and a plot of nM compound
70 mM EDTA. Phosphorylated and unphosphorylated using GraphPad Prism (v5.01, GraphPad Software), Y =
Reader software. velocity, X = inhibitor concentration).
Morrison Tight-Binding Method (35).
2.0 nM Mer, and 1.0 μM peptide substrate.
The subject of data set [13] is MV4;11. Kind of data set: Soft agar colony formation assay, MV4;11. The settings on record: MV4;11, 50 nM, 14 days, normalized to vehicle. The format is cell-based. As to the method: as §1
The subject of data set [14] is primary AML patient samples. Kind of data set: Colony formation in methylcellulose, primary AML patient samples. The format is cell-based, human. On the procedure: as §1
The test system of data set [15] is MOLM-13. Kind of data set: Soft agar colony formation assay, MOLM-13. It is filed as cell-based. The settings on record: MOLM-13, 50 nM, 14 days, normalized to vehicle. As to the method:
as §1

Data set [16] deals with Kasumi-1 cell line. Kind of data set: Replating (rebound growth) assay, Kasumi-1. The settings on record: Kasumi-1, 100 nM for 72 hours then washed, replated at 1.5 × 10^4 viable cells/ml; vehicle 2.0 × 10^5.
Procedure: as §2

SMILES strings stand for the structures.

TRKC, sequence (Q16288 32-839): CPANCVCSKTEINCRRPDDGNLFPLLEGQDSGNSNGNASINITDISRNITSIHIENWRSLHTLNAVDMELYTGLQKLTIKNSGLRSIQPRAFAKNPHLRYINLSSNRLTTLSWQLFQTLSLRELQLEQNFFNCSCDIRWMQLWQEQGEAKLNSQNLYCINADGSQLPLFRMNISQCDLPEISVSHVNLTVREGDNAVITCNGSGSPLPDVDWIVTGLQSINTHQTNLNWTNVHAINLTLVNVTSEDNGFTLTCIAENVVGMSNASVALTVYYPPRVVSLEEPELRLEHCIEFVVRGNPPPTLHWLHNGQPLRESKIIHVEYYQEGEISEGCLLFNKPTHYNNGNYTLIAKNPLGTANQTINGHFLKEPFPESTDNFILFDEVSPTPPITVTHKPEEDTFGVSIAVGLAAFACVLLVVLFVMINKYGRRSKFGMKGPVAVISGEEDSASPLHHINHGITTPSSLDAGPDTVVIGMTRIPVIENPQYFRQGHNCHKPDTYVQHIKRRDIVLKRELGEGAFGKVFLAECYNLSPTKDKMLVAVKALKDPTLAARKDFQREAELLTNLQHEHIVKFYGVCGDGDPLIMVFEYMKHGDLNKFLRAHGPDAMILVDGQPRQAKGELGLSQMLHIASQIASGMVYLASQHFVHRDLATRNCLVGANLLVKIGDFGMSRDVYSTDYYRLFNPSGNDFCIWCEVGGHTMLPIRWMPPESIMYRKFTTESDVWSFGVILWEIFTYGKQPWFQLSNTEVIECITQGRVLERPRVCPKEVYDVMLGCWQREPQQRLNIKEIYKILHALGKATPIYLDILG

With `CCCCNc1ncc2c(-c3ccc(S(=O)(=O)N4CCOCC4)cc3)cn([C@H]3CC[C@H](O)CC3)c2n1` [UNC1666], in [1], the “Cell cycle effect (in words)” value is listed as “accumulation of cells in G2M phase”. The “Reduction of colony formation” value in data set [2] is “greater than 90%”. The “Apoptosis (cells apoptotic or dead)” value in data set [3] was 98 ± 2%; in data set [5], 90 ± 1%. The “Reduction in colony formation” value in [4] is 71 ± 4%. In addition, the “Anti-proliferative effects in patient samples (in words)” value in data set [6] (50 nM, co-culture with stromal cells) is “near complete induction of apoptosis and growth inhibition”. For the same compound, the “Induction of apoptosis (in words)” value in data set [6] (72 hours, HS27 stromal co-culture) was “induce apoptosis in all patient samples”. Also, the “Concentrations at which functional effects (decreased ability to evade apoptosis, decreased colony formation) occurred” value in [6] (AML patient samples that co-expressed Mer and Flt3) lay in the range of 5 to 100 nM. Besides, the “Cells apoptotic or dead” value in data set [7] (50 nM) is reported as 54–67%; in data set [7] (300 nM), 90–98%. For the same compound, the “Induction of apoptosis, % of cells” value in data set [8] (100 nM) was 50–67%; in data set [8] (300 nM), 68–76%. The inhibition at 0.046 µM in data set [9] came to 98%; in data set [10] it was 101%. The “Colony formation of normal cord blood hematopoietic precursors (in words)” value in [11] (1 μM, methylcellulose, 14 days) is on record as “trend towards decreased colony formation”. The “Decrease in colony formation of normal cord blood hematopoietic precursors (in words)” value in data set [11] (10 μM, methylcellulose, 14 days) is recorded as “statistically significant”. In data set [11] (doses as high as 1 μM), the “Colony forming potential of hematopoietic progenitors in normal cord blood cultures (in words)” value is listed as “did not affect the colony forming potential”. Also, the “Colony number of normal cord blood hematopoietic precursors (in words)” value in [11] (doses up to 500 nM, n = 3, methylcellulose, 14 days) is recorded as “no significant reduction in colony number”. The compound also had an IC50 in data set [12] of 0.57 nM. Further, the values for the Reduction in colonies in [13] and in [15] were 61 ± 22% and 93 ± 6%, respectively. For the same compound, the “Concentrations at which patient-derived myeloblasts are sensitive in methylcellulose cultures” value in data set [14] (as low as) lay within 5 to 50 nM. In [14] (concentrations as low as 50 nM, in all but one sample, 10 days, methylcellulose), the “Colony formation (in words)” value is listed as “near complete abrogation of colony formation”. Besides, the “Viable cell number at Day 6 after replating” value in data set [16] is on record as 0.3 × 10^5 cells/ml.
